What was measured:
rat = tested on: rat; set-up: method as in May et al, 2011; Fielden et al, 2015; conditions: ref May et al, 2011; Fielden et al, 2015; cited from earlier work
CatD = tested on: CatD; set-up: method as in Fielden et al, 2015; conditions: ref Fielden et al, 2015; cited from earlier work
APP‐transgenic mice = tested on: APP‐transgenic mice; set-up: method as in Beckmann et al, 2016; Villarreal et al, 2017; conditions: ref Beckmann et al, 2016; Villarreal et al, 2017; cited from earlier work
C57/BL6 mice = assay: Hair depigmentation study, 8 weeks dosing; assay type: in vivo, mouse; conditions: for % Aβ40 in brain relative to vehicle alone: steady state
Protocol: Compounds were either mixed in feed or given as a suspension orally. […] Vehicle or compounds were given orally in a volume of 10 ml/kg once daily (mornings) for 8 weeks. Vehicle: 0.1% Tween‐80 in 0.5% methylcellulose in water. […] The vehicle group was treated with food pellets containing no compound. The β1 antibody was dosed 0.5 mg/kg body weight, once weekly intraperitoneally, diluted in 90 nM NaCl, 50 nM Tris pH 7.1.

In the case of CC1(C#Cc2cnc3c(c2)[C@]2(COC(N)=N2)c2cc(-c4cccnc4F)ccc2O3)COC1 [AMG‐8718], the “retinal pathology in the rat” value (rat) is listed as “retinal degeneration” and the “CatD selectivity in vitro” value (CatD) is listed as > 3,000 fold.
In the case of CN1C(=N)N[C@](C)(c2cc(NC(=O)c3ccc(F)cn3)ccc2F)CS1(=O)=O [verubecestat], the CMH events (APP‐transgenic mice) is given as “No CMH events were observed”.
For C[C@@]1(c2cc(-c3cncnc3)c(F)cc2F)CCSC(N)=N1 [LY2811376], the “retinal pathology in the rat” value (rat) is given as “retinal degeneration”.
In the case of Cc1cc(C#N)cnc1C(=O)Nc1ccc(F)c([C@]2(C)CO[C@@](C)(C(F)(F)F)C(N)=N2)c1 [NB‐360], the CMH events (APP‐transgenic mice) is listed as “No CMH events were observed”, the “start of hair depigmentation” value (C57/BL6 mice; C57/BL6 mice) is listed as 2–3 weeks and the “% Aβ40 in brain relative to vehicle alone” value (C57/BL6 mice; Dose 9 mg/kg) is listed as 66%. For the same compound, the “% Aβ40 in brain relative to vehicle alone” value (C57/BL6 mice; Dose 45 mg/kg) was 32% and the “hair depigmentation / change in hair color” value (C57/BL6 mice; male C57/BL6 mice, 8 weeks oral once daily) was “obvious hair depigmentation in all mice”.
